Measurements: ChEMBL document CHEMBL1255212, “Synthesis and antiviral evaluation of α-D-2',3'-didehydro-2',3'-dideoxy-3'-C-hydroxymethyl nucleosides” (Bioorg Med Chem Lett, 2010)
Values after ≈ are worked out from the molar mass of the structure shown. Active and inactive are the calls of the source. The rule behind the calls is not given here.

Columns and labels:
Type in all cases: functional, organism-based
[1] = tested on: Human immunodeficiency virus 1; assay: Antiviral activity against HIV1
Human betaherpesvirus 5 = assay: Antiviral activity against HCMV
Human alphaherpesvirus 1 = assay: Antiviral activity against HSV1
Human alphaherpesvirus 2 = assay: Antiviral activity against HSV2

Row | SMILES | Activity [1] | Activity (Human betaherpesvirus 5) | Activity (Human alphaherpesvirus 1) | Activity (Human alphaherpesvirus 2) | EC50 (Human alphaherpesvirus 1)
1 | Nc1ncnc2c1ncn2[C@@H]1C=C(CO)[C@@H](CO)O1 | inactive | inactive | inactive | inactive | –
2 | NC1C=CN([C@@H]2C=C(CO)[C@@H](CO)O2)C(=O)N1 (some centres not stated) | inactive | inactive | inactive | inactive | –
3 | Cc1cn([C@@H]2C=C(CO)[C@@H](CO)O2)c(=O)[nH]c1=O | inactive | inactive | – | inactive | 33 µg/mL (≈ 130 µM)
